The target of one experiment is T1, PIM3 (Homo sapiens, UniProt Q86V86).
T1 construct: purchased Millipore 14-738
The experiment can be described thus: RBC HotSpot kinase inhibition assay, PIM3. Type of experiment: biochemical. The procedure: (§1) Reagents. Base Reaction Buffer: 20 mM Hepes (pH 7.5), 10 mM MgCl2, 1 mM EGTA, 0.01% Brij35, 0.02 mg/ml BSA, 0.1 mM Na3VO4, 2 mM DTT, 1% DMSO. The following kinases were used in the assay at the indicated concentrations:
(§2) The following substrates were used in combination with the indicated kinases in the assay at the indicated concentration:
(§3) No cofactors were added to any of the reactions.
(§4) • 1. Prepared substrate in freshly prepared Reaction Buffer. • 2. Delivered kinase into the substrate solution and gently mixed. • 3. Delivered test compound in 100% DMSO into the kinase reaction mixture by Acoustic technology (Echo550; nanoliter range), incubated for 20 minutes at room temperature. • 4. Delivered ^33P-ATP into the reaction mixture to initiate the reaction. • 5. Incubated for 2 hours at room temperature. • 6. Detected kinase activity by P81 filter-binding method.
(§5) The results of the RBC HotSpot™ kinase assay are set forth in Table 1, wherein “A” indicates an IC50<10 nM, “B” indicates an IC50 wherein 10 nM≤IC50≤100 nM, and “C” indicates an IC50>100 nM.

In a further experiment the test system is Caspase 3/7. The experiment can be described thus: Apoptosis assay (Caspase 3/7) in A549 cells. Type of experiment: cell-based. Conditions: Homo sapiens, 24 hours, read-out: EC50, Caspase 3/7 activation. The text has this: Overview. PIM1 is a kinase, and has many downstream targets including Bad (BCL2 associated agonist of cell death), a member of the BCL-2 family. BCL-2 family members are regulators of the programmed cell death pathways. Proapoptotic activity of Bad is regulated through its phosphorylation. Dephosphorylated Bad forms a heterodimer with Bcl-2 and Bcl-xL, inactivating them and thus allowing Bax/Bak-triggered apoptosis. Bad phosphorylation is thus anti-apoptotic, and Bad dephosphorylation is pro-apoptotic. PIM inhibition is expected to result in a decrease of phosphorylated Bad, and an increase in apoptosis.
Procedure. Three thousand five hundred A549 cells (ATCC, CCL-185) were added per well of a 384-well plate in a total volume of twenty-five microliters and cultured in RPMI medium (no phenol red)+plus ten percent fetal calf serum. The next day, DMSO or test compound was added (90 nanoliters of test compound/DMSO per well) at 7 different concentrations starting at 10 micromolar (3.3-fold dilution). After 24 hours at 37° C. with 5% CO2, apoptosis was measured by using the Caspase 3/7 assay system (Promega, G8090). […] The cells were then incubated at room temperature for 30 minutes and luminescence was measured for each sample using a plate reading luminometer (Envision, PerkinElmer).

The next experiment deals with A549 cells. The experiment can be described thus: Wound healing assay in A549 cells with TGF-β. Conditions: for IC50: Homo sapiens, wound healing, A549, 5 ng/ml TGF-β; for migration (wound closure): after 72 hours, vs vehicle control with TGF-β. It is filed as cell-based. The text has this:
Overview. Epithelial to mesenchymal transition (EMT) is used to describe epithelial cells losing their cell to cell adhesion and polarity while gaining migratory and invasive properties. The process of EMT is required for normal embryonic development and wound healing, but has also been implicated in fibrosis. In humans, TGF-β signaling is the main driver of EMT, and inhibiting this pathway may be beneficial in various diseases such as fibrosis. A wound healing assay was used to study cell migration and cell-cell interaction, and probe the EMT properties of lung epithelial cells (A549) in presence of Compound 2 or Compound 4.
Procedure. A549 cells (ATCC, CCL-185) were seeded into the ImageLock plate (Essen Bioscience) at 2×10^4 cells/well in 100 μL of complete growth media. Cells were incubated overnight at 37° C., 5% CO2. The next day, cells were washed with 1×PBS and Compound 2, Compound 4, DMSO control (±TGF-β) or galunisertib (TGF-β inhibitor used as positive control) was added to the cells in a serum-free F12K media (0.2% DMSO final, 10 μM starting concentration, 3-fold dilution, 8-doses) in presence of 5 ng/ml TGF-β. Cells were incubated for 48 hours (until they reached confluency) at 37° C., 5% CO2. Wounds were simultaneously created using a WoundMaker™ (Essen Bioscience). Debris and non-attached cells were removed by gently washing once with F12K.
Test compound or control compound and TGF-β were added to the cells in F12K+10% FBS as previously described. The ImageLock plate was put into IncuCyteS3 instrument installed inside a 5% CO2 incubator. The plate was allowed to equilibrate in the IncuCyteS3 instrument for 15 minutes prior to scheduling the first scan and data recording. The plate was incubated for 72 hours at 37° C., and wound closure was recorded in real time with the IncuCyte S3 imaging system. Percentage of relative wound density was quantitatively calculated by the IncuCyte software.

The target in another experiment is T2, PIM1 (Homo sapiens, UniProt P11309).
T2 construct: purchased Invitrogen PV3503
T2 sequence (P11309 whole entry): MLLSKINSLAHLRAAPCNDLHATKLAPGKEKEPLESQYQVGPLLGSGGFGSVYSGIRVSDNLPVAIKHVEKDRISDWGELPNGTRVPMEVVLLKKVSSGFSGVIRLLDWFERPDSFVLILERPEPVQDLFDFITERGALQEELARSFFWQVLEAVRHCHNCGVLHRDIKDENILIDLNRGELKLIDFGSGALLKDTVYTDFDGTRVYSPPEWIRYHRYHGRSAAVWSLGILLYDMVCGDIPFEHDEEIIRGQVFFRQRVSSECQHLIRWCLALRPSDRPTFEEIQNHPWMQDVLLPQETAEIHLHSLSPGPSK
Put plainly: RBC HotSpot kinase inhibition assay, PIM1. Type of experiment: biochemical. On the procedure: as §1, §2, §3, §4, §5

Read-outs that look alike come from different tables or passages of the source.

By IC50 is commonly meant the concentration that inhibits the measured activity by half. Consider `Cc1cc(-c2cnc3ccc(NC45CCC(C(C)(C)O)(CC4)CC5)nn23)n[nH]1` [Compound 2, 2-(4-((3-(5-methyl-1H-pyrazol-3-yl)imidazo[1,2-b]pyridazin-6-yl)amino)bicyclo[2.2.2]octan-1-yl)propan-2-ol], for which the half-maximal inhibitory concentration (IC50) at PIM3 is below 10 nM; with A549 cells (24 h, read-out: IC50 (μM) 24 h), 1 to 10 µM; in the experiment on A549 cells (48 h, read-out: IC50 (μM) 48 h), 1 to 10 µM; with A549 cells (72 h, read-out: IC50 (μM) 72 h), 1 to 10 µM; on PIM1, below 10 nM. In addition, the EC50 in the experiment on Caspase 3/7 fell in the range of 1000 to 20000 nM. Moreover, in the experiment on A549 cells, the “migration (wound closure)” value is on record as “strongly inhibited”.
As for `CC(C)(O)C12CCC(Nc3ccc4ncc(-c5cc(C6CC6)[nH]n5)n4n3)(CC1)CC2` [Compound 4, 2-(4-((3-(5-cyclopropyl-1H-pyrazol-3-yl)imidazo[1,2-b]pyridazin-6-yl)amino)bicyclo[2.2.2]octan-1-yl)propan-2-ol], the half-maximal inhibitory concentration (IC50) is below 10 nM on PIM3; 1 to 10 µM with A549 cells (24 h, read-out: IC50 (μM) 24 h); 1 to 10 µM in the experiment on A549 cells (48 h, read-out: IC50 (μM) 48 h); 1 to 10 µM in the experiment on A549 cells (72 h, read-out: IC50 (μM) 72 h); below 10 nM at PIM1. In addition, the EC50 in the experiment on Caspase 3/7 lay within 1000 to 20000 nM. The “migration (wound closure)” value in the experiment with A549 cells is “strongly inhibited”.

The record behind these values is patent publication US20240360135A1, “IMIDAZO[1,2-B]PYRIDAZINYL COMPOUNDS AND USES THEREOF” (Sumitomo Pharma Oncology, Inc., priority 2021, published 2024).
